Legend:
Type in all cases: in vivo
[1] = system: asthma-induced mice; experiment: Bronchial hypersensitivity reaction (Rrs value, methacholine), asthma-induced mice; details: for bronchial hypersensitivity reaction: Experiment Result 7, orally administered daily, FIG. 21
Protocol: (§1) Eight-week-old female […] mice (Orient Bio Korea Inc., Korea) having no certain pathogen were accommodated in an aseptic laminar-flow cabinet, and bred by supplying a standard solid feed ad libitum. When the following experiment was performed, the mice were made to correspond to 7- to 8-weeks old, and all laboratory animals were managed according to the protocol approved by the Institutional Animal Care and Use Committee of the Chonbuk National University Medical School.
(§2) Also, on days 21 and 28 from the experimental starting date, the mice were put into a plastic box (Plexiglas (Rohm & Haas, Philadelphia, Pa.) exposure chamber; 24.5 cm×40.5 cm×15.0 cm), and 1.5% ovalbumin was evaporated using an ultrasonic nebulizer (NE-U12; output 0.8 mL/min; Omron, Japan), and injected into the box for 30 minutes so that the mice inhaled the evaporated ovalbumin (secondary challenge).
45 mg/kg of sodium pentobarbital was intraperitoneally injected into the mice prepared in Experimental Method 1 to anesthetize the mice, and the airways were cut and an 18 gauge needle was inserted into the airways. Thereafter, the needle was connected to a small-sized animal respirator connected to a computer, and the computer system was adjusted to a respiration rate of 150 breaths per minute. Then, methacholine in the form of aerosol was fed at an increasing concentration of 5.0 to 50 mg/mL so that the mice inhaled the methacholine. Then, an airway response was measured, and indicated as an Rrs value.
Preparation Example 3 (α,δ-NA-L-G) or α,δ N-acetyl-D-glutamine was orally administered to the asthma-induced mice of Experimental Method 1 at a concentration of 200 or 400 μg/kg/day 30 minutes before a secondary airway challenge, and the bronchial hypersensitivity reaction was measured 48 hours after the secondary challenge using the method described in Experimental Method 5. The results are shown in A and B of FIG. 5.

[2] = system: neutrophils and eosinophils introduced into the airway; experiment: Inflammatory cells (neutrophils and eosinophils) in bronchoalveolar lavage fluid, Diff-Quik staining, asthma-induced mice; details: asthma-induced mice; for cell numbers of neutrophils and eosinophils: Experiment Result 7, orally administered daily, FIG. 19
Protocol: as §1, §2
(§3) After the mice were anesthetized, a thin tube was inserted into the airway, and a piston process was repeated using a syringe filled with 0.2 mL of physiological saline to obtain a bronchoalveolar lavage fluid. The bronchoalveolar lavage fluid obtained through this piston process was stored at −70° C. when it was not immediately used in the experiments.
50 μL of the bronchoalveolar lavage fluid obtained in Experimental Method 2 was put on a slide used for the cytospin, and centrifuged for 30 minutes. Thereafter, Diff-Quik staining was performed, and inflammatory cells (neutrophils and eosinophils) were observed using a microscope.
Preparation Example 3 (α,δ-NA-L-G) or α,δ N-acetyl-D-glutamine (α,δ-NA-D-G) was orally administered to the asthma-induced mice of Experimental Method 1 daily from the experimental starting date at a concentration of 50, 100, or 200 μg/kg/day, and the cell numbers of neutrophils and eosinophils introduced into the airway through the method of Experimental Method 3 were measured. The results are shown in A and B of FIG. 3. In this case, the cell numbers were measured at 10 hours (neutrophils) or 48 hours (eosinophils) after a secondary challenge.

[3] = system: IL-4, IL-5, and IL-13; experiment: Cytokines in bronchoalveolar lavage fluid by ELISA, asthma-induced mice; details: asthma-induced mice; for expression levels of the cytokines (IL-4, IL-5, and IL-13): Experiment Result 7, orally administered daily, FIG. 20
Protocol: as §1, §2, §3
(§4) A level of cytokines in the bronchoalveolar lavage fluid obtained in Experimental Method 2 was measured using an ELISA kit. Here, ELISA kits specifically manufactured for TNF-α, IL-4, IL-5, and IL-13 were used.
Preparation Example 3 (α,δ-NA-L-G) or α,δ N-acetyl-D-glutamine was orally administered to the asthma-induced mice of Experimental Method 1 at a concentration of 100, 200, 400 or 800 μg/kg/day 30 minutes before a secondary airway challenge, and levels of IL-4, IL-5, and IL-13 were measured through the method described above in Experimental Method 4 24 hours after the secondary challenge. The results are shown in A and B of FIG. 4.

[4] = system: CK2α protein; experiment: Western blot of CK2α protein in lung of asthma-induced mice; details: administered daily; 1 or 2 hours after the secondary challenge; FIG. 10
Protocol: as §2
A tissue was extracted from each of the mice manufactured in Experimental Method 1, and finely ground to a cell level. Thereafter, the cells were lysed in a cell lysis buffer containing a protease inhibitor to obtain a cell lysate. The cell lysate was centrifuged to obtain protein. Then, an equivalent amount of the proteins obtained from the cells were loaded on an SDS-PAGE gel and electrophoresed. The proteins present in the electrophoresed gel were transferred to a PVDF membrane. The PVDF membrane was washed, and added to a blocking buffer in which 5% skim milk was included in a TBS-T buffer, and incubated at room temperature. Then, the PVDF membrane was incubated at room temperature with an antibody diluted 1:1,000 in a TBS-T buffer containing 3% BSA. […] The PVDF membrane was washed three times with a TBS-T buffer, and visualized and quantified using an ECL Western blotting detection reagent. […]
(§5) Specifically, the secondary challenge (ovalbumin injection) was performed according to the method described above in Experimental Method 1, and the lungs were extracted after an hour, and then measured according to the method described above in Experimental Method 7. […] Also, the level of TNF-α corresponding to an NK-κB-dependent cytokine was measured by ELISA according to the method described above in Experimental Method 4. […]
The secondary challenge (ovalbumin injection) was performed according to the method described above in Experimental Method 1, and the lungs were extracted after 1 or 2 hours, and then measured according to the method described above in Experimental Method 7. […]

[5] = system: NF-κB and TNF-α; experiment: NF-κB (Western blot) and TNF-α (ELISA) in asthma-induced mice; details: administered daily
Protocol: as §2, §4
A tissue was extracted from each of the mice manufactured in Experimental Method 1, and finely ground to a cell level. Thereafter, the cells were lysed in a cell lysis buffer containing a protease inhibitor to obtain a cell lysate. The cell lysate was centrifuged to obtain protein. Then, an equivalent amount of the proteins obtained from the cells were loaded on an SDS-PAGE gel and electrophoresed. The proteins present in the electrophoresed gel were transferred to a PVDF membrane. The PVDF membrane was washed, and added to a blocking buffer in which 5% skim milk was included in a TBS-T buffer, and incubated at room temperature. Then, the PVDF membrane was incubated at room temperature with an antibody diluted 1:1,000 in a TBS-T buffer containing 3% BSA. Then, the PVDF membrane was washed with a TBS-T buffer, and incubated at room temperature for an hour with a dilute solution containing HRP-bound IgG. The PVDF membrane was washed three times with a TBS-T buffer, and visualized and quantified using an ECL Western blotting detection reagent.
Here, antibodies specific to elastin, caspase-3, collagen, MKP-1, p-cPLA, p-p38, NF-κB(p65), CK2α, GAPDH, or β-actin were used in the Western blot.
Specifically, the secondary challenge (ovalbumin injection) was performed according to the method described above in Experimental Method 1, and the lungs were extracted after an hour, and then measured according to the method described above in Experimental Method 7. The results are shown in A of FIG. 9. Also, the level of TNF-α corresponding to an NK-κB-dependent cytokine was measured by ELISA according to the method described above in Experimental Method 4. The results are shown in B of FIG. 9. […]
as §5, with “The” for “Specifically, the”, “30 or 60 minutes,” for “an hour,”

Compound	bronchial hypersensitivity reaction [1]	cell numbers of neutrophils and eosinophils [2]	expression levels of the cytokines (IL-4, IL-5, and IL-13) [3]	also measured
CC(=O)NC(=O)CC[C@@H](NC(C)=O)C(=O)O [α,δ N-acetyl-D-glutamine, reference compound]				Rrs value (bronchial hypersensitivity reaction) ([1]; oral 200 or 400 μg/kg/day 30 minutes before secondary challenge, 48 hours after, methacholine 5.0 to 50 mg/mL, FIG. 5): did not exhibit an inhibitory effect; inflow of the neutrophils and eosinophils into the airway ([2]; oral daily 50, 100 or 200 μg/kg/day, neutrophils 10 hours, eosinophils 48 hours after secondary challenge, FIG. 3): not inhibited; levels of the cytokines (IL-4, IL-5, IL-13) ([3]; oral 100, 200, 400 or 800 μg/kg/day, regardless of the concentration, 24 hours after secondary challenge, FIG. 4B): did not inhibit
CCOC(=O)[C@H](CCC(=O)NC(C)=O)NC(C)=O [Preparation Example 4, Ethyl 2,5-diacetamido-5-oxopentanoate]	inhibited	decreased	decreased	
Oc1ccc(-c2nc(-c3ccncc3)c(-c3ccc(F)cc3)[nH]2)cc1 [SB202190, reference compound]				level of the CK2α protein [4]: decreased
Brc1c(Br)c(Br)c2n[nH]nc2c1Br [inhibitor of the CK2α protein, TBBt, reference compound]				level of the presence of the TNF-α protein ([5]; ELISA, FIG. 11B): decreased; level of the NF-κB protein ([5]; at 30 and 60 minutes after secondary challenge, FIG. 11): decreased
COC(=O)[C@H](CCC(=O)NC(C)=O)NC(C)=O [Preparation Example 6]	inhibited	decreased	decreased	
CC(=O)NC(=O)CC[C@H](NC(C)=O)C(=O)OCc1ccccc1 [Preparation Example 2, Benzyl 2,5-diacetamido-5-oxopentanoate]	inhibited	decreased	decreased	
